Like-named read-outs stand apart in the source and are kept apart here.
What was measured:
P-gp = tested on: P-gp; set-up: method as in PMID 24700236; conditions: cited from earlier work
A2780 cells = assay: In vitro A2780 cell cytotoxicity assay (MTT); format: cell-based; conditions: 6 days
Experimental: A2780 cells were seeded in triplicate at densities of 10^5 per well for cytotoxicity assays in 96-well flat-bottomed plates with the recommended culture medium. […] Cell viability was assessed using MTT assays as previously described.

BCRP = target: T1, BCRP (Homo sapiens, UniProt Q9UNQ0); assay: MDCKII-BCRP monolayer bidirectional transport assay; format: in vitro ADME; conditions: MDCKII-BCRP cells; for Papp A→B at 120 min, 1 μM / Papp B→A at 120 min, 1 μM / Papp A→B at 120 min, 10 μM / Papp B→A at 120 min, 10 μM / Papp A→B at 120 min, 100 μM / Papp B→A at 120 min, 100 μM: human
T1 construct: host or cells: MDCKII
T1 sequence (Q9UNQ0 1-655): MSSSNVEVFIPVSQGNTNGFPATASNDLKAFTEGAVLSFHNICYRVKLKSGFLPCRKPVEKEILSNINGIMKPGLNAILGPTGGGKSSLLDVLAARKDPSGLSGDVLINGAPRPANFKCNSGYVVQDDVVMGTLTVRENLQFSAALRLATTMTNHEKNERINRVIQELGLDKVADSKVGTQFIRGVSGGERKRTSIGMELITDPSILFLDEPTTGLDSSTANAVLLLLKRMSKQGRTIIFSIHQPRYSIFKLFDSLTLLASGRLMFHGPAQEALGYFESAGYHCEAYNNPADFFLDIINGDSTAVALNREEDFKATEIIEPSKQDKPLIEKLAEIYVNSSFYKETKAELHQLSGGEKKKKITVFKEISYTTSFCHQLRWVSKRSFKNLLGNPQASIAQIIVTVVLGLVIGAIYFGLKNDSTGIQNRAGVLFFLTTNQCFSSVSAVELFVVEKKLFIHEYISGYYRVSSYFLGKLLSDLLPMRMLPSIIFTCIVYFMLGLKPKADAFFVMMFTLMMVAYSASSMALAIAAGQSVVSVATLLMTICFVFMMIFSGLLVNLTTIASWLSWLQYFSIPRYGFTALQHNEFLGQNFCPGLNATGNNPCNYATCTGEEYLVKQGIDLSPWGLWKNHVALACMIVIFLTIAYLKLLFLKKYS
Experimental: (§1) The monolayer assays were performed using parental and BCRP or MDR1 transfected MDCKII cell monolayers. […] Transfected and parental MDCKII cells were cultured on the inserts with 100 μL medium per well on the apical side and 25 mL in a single-well receiver tray for all 24 wells on the basolateral side, for 96 hours. Medium was changed 24 hours before the experiment. Permeability incubations were carried out in Hank’s Buffered Salt Solution (HBSS) at 37 ± 1°C. […] LY samples (100 μL from basolateral wells) were analyzed by measuring fluorescence with the following wavelengths: excitation – 430 nm, emission – 520 nm. Trans-epithelial electric resistance (TEER) of each well was measured to confirm the confluency of the monolayers after the experiments. The assays were conducted according to the actual SOLVO MDCKII-BCRP and MDCKII-MDR1 monolayer assay protocols (SOP). […] Cells were pre-incubated in assay buffer for 10 minutes to allow cells adjusting to the medium. Assay buffer containing the test articles (separately) at three concentrations (1 μM, 10 μM and 100 μM) was then added to the appropriate apical (100 μL) or basolateral (600 μL) chamber. […] The prazosin or digoxin efflux ratio was determined as a positive control for BCRP or MDR1 function, respectively. […] Bidirectional transport of the test articles in control, MDCKII-BCRP and MDCKII-MDR1 cells was determined by LC-MS/MS.

MDR1 (P-gp) = target: T2, MDR1 (P-gp) (Homo sapiens, UniProt P08183); assay: MDCKII-MDR1 monolayer bidirectional transport assay; format: in vitro ADME; conditions: human, MDCK-MDR1, MDCKII-MDR1 cells, 120 minutes
T2 construct: host or cells: MDCKII
Experimental: as §1

human MDR1 = target: T3, human MDR1 (Homo sapiens, UniProt P08183); assay: as above; format: in vitro ADME; conditions: MDCKII-MDR1 cells
T3 construct: host or cells: MDCKII
Experimental: as §1

[1] = cited from earlier work
[2] = tested on: human bone marrow CD34+ cells; assay: In vitro liquid culture system for human megakaryocyte-specific development; format: cell-based
Experimental: CD34^+ cells were harvested from normal human bone marrow and differentiated into megakaryocytes. In this model system, the first 7 days of culture are dominated by proliferation of early progenitor cells, with differentiation and maturation occurring typically between day 7 and 10.
In vitro human megakaryocyte differentiation was assessed using a liquid culture system in which the human bone marrow CD34^+ cells (lot # 0150114, ReachBio) derived from normal bone marrow were used. X-Vivo 15 (Lonza) containing 100 ng/mL SCF (Peprotech) and 50 ng/mL Tpo was used to drive CD34^+ cells proliferation and differentiation into megakaryocyte lineage cells. Test drugs were incubated with CD34^+ cell for either 7 days or 10 days. The megakaryocyte lineage cells characterized by an ability to exclude DAPI were analyzed by flow cytometry. The percentage of megakaryocyte lineage cells in the total CD34^+ cells were then calculated. To determine the IC50 values, XLFit was used. The dose-response data for the relevant experimental conditions were tabulated and then processed using curve-fitting algorithm 205 provided in XLFit.

[3] = 168 h, 7 days (proliferation), read-out: IC50, megakaryocyte lineage cells, day 7
[4] = 240 h, 10 days (differentiation and maturation), read-out: IC50, megakaryocyte lineage cells, day 10

T2 sequence (P08183 whole entry): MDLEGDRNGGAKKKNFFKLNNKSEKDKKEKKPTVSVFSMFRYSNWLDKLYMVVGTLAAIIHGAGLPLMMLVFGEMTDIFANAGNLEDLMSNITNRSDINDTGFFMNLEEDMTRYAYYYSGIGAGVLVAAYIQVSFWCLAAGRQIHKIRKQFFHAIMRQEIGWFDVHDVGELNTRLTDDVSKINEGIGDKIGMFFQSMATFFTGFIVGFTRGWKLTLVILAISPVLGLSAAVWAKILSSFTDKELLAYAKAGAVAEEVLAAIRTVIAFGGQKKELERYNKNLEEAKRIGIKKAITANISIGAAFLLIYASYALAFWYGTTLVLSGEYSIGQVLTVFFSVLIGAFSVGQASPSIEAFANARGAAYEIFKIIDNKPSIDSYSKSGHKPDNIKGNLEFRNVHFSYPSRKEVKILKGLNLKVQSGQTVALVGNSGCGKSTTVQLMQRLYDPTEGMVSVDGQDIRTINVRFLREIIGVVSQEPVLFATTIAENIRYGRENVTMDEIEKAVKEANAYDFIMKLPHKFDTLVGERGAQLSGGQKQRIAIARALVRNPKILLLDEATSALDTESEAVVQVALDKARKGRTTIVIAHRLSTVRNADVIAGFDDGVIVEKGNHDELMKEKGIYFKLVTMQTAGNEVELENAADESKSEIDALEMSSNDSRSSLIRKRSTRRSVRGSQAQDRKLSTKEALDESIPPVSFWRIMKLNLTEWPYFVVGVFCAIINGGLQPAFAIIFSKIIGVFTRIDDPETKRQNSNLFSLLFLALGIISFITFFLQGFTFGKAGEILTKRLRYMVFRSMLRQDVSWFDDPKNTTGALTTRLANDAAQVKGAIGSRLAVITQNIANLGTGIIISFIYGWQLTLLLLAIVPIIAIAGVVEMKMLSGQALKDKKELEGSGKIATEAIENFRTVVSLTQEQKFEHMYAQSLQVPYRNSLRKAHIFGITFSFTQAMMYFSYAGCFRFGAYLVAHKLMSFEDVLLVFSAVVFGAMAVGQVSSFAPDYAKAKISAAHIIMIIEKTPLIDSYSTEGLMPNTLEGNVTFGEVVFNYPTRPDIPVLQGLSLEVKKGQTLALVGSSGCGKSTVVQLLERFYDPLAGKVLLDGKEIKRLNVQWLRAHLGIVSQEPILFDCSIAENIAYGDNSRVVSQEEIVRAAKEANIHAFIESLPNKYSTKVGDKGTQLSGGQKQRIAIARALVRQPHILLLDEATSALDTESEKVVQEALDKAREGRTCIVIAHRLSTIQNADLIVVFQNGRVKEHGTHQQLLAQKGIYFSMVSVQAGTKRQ
T3 sequence (P08183 whole entry): as above

SMILES | P-gp substrate (P-gp) | cytotoxicity in cultured A2780 cells, niraparib versus olaparib (A2780 cells) | Net ER (BCRP; 1 μM) | Net ER (BCRP; 10 μM) | Net ER (BCRP; 100 μM) | Papp A→B at 120 min, 1 μM (BCRP; 1 μM) [×10⁻⁶ cm/s] | Papp B→A at 120 min, 1 μM (BCRP; 1 μM) [×10⁻⁶ cm/s] | Papp A→B at 120 min, 10 μM (BCRP; 10 μM) [×10⁻⁶ cm/s] | Papp B→A at 120 min, 10 μM (BCRP; 10 μM) [×10⁻⁶ cm/s] | Papp A→B at 120 min, 100 μM (BCRP; 100 μM) [×10⁻⁶ cm/s] | Papp B→A at 120 min, 100 μM (BCRP; 100 μM) [×10⁻⁶ cm/s] | Papp A→B at 120 min, 1 μM (MDR1 (P-gp)) [×10⁻⁶ cm/s] | Papp B→A at 120 min, 1 μM (MDR1 (P-gp)) [×10⁻⁶ cm/s] | Papp B→A at 120 min, 10 μM (MDR1 (P-gp); 10 μM) [×10⁻⁶ cm/s] | Papp A→B at 120 min, 100 μM (MDR1 (P-gp)) [×10⁻⁶ cm/s] | Papp B→A at 120 min, 100 μM (MDR1 (P-gp)) [×10⁻⁶ cm/s] | Net ER (human MDR1; 1 μM) | Net ER (human MDR1; 10 μM) | Net ER (human MDR1; 100 μM) | IC50 [2, 3] [nM] | further results
NC(=O)c1cccc2cn(-c3ccc([C@@H]4CCCNC4)cc3)nc12 [Niraparib, 2-{4-[(3S)-piperidin-3-yl]phenyl}-2H-indazole-7-carboxamide] | substrates of P-gp | not statistically different | 8.86 ± 3.28 | 24.73 ± 6.47 | 9.58 ± 1.70 | 4.83 ± 2.29 | 52.1 ± 3.09 | 2.27 ± 0.7 | 59.6 ± 3.65 | 4.1 ± 0.13 | 43.1 ± 2.62 | 5.33 ± 3.51 | 54.3 ± 3.03 | 51.2 ± 1.43 | 0.1 ± 0.01 | 2.66 ± 0.14 | 8.82 ± 4.94 | 37.71 ± 8.95 | 24.61 ± 5.32 | 1200 | Papp A→B at 120 min, 10 μM (MDR1 (P-gp); 10 μM): 1.32 ± 0.29 ×10⁻⁶ cm/s; BCS class ([1]; administered at 200 mg in humans): Class I; BCS class ([1]; administered at 300 mg in humans): Class II; IC50 [2, 4]: 800 nM
O=C(c1cc(Cc2n[nH]c(=O)c3ccccc23)ccc1F)N1CCN(C(=O)C2CC2)CC1 [Olaparib] | substrates of P-gp | not statistically different | 32.97 ± 9.58 | 71.22 ± 14.97 | 50.54 ± 13.65 | 1.12 ± 1.04 | 41.4 ± 4.35 | 0.59 ± 0.33 | 44.1 ± 2.65 | 0.9 ± 0.22 | 46.8 ± 3.4 | 1.7 ± 0.69 | 46.5 ± 5.14 | 45 ± 6.41 | 0.7 ± 0.05 | 57.5 ± 4.71 | 22.84 ± 2.65 | 82.56 ± 6.13 | 80.02 ± 5.98 | 1600 | Biopharmaceutical Classification System (BCS) class ([1]; low permeability, very low solubility): Class IV; IC50 [2, 4]: 1300 nM
